The record followed here is US20230364074A1, “Compounds and Compositions for Disrupting Programmed Ribosomal Frameshifting” (YALE UNIVERSITY, priority 2020, published 2023).

One series has as its system SARS-CoV-2 FSE (−1 PRF). The series can be described thus: cells. Format: cell-based.
The test system of another series is HEK293T cells. The series can be described thus: Cell viability in the high-throughput screen (cell nuclei numbers). Particulars: 10 μM compound, cell nuclei numbers. The procedure:
HEK293T cells were plated in 384 well plates at the density of 5,000 cells/well. Cells were treated by 10 μM candidate compounds 30 min before transfection of 15 ng mCherry-FSE-GFP(−1) plasmid DNA in each well. 24 hours after transfection, cell nuclei were stained with Hoechst dye. Cell nuclei, mCherry, and GFP signals were imaged using an automated fluorescent microscope with a 10x objective, and the acquired images were quantified using the CellProfiler image analysis package. Cell nuclei numbers were quantified as the metric for cell viability. Mean GFP and RFP intensity values were measured in all transfected cells, and GFP/mCherry mean intensity ratios were quantified as the metric for PRF efficiency. The mCherry-GFP fusion plasmid and the mCherry-FSE-GFP(0) plasmid were used as positive and negative controls for elevated and reduced GFP/mCherry ratios, respectively.

[1] abbreviates: Severe acute respiratory syndrome coronavirus 2, HEK-293T, 24 h, read-out: PERCENT EFFECT 2 (Decreased GFP/Red ratio).
Setting [2] is: Severe acute respiratory syndrome coronavirus 2, HEK-293T, 24 h; read-out: PERCENT EFFECT 2 (Decreased GFP/Red ratio).
Setting [3] is: Severe acute respiratory syndrome coronavirus 2, HEK-293T, 24 h; read-out: PERCENT EFFECT (Increased GFP/Red Ratio).

Counter-ions that a name gives are not always drawn. Like-named read-outs stand apart in the source and are kept apart here.

As for `Nc1c2ccccc2nc2ccccc12` [AMINACRINE], in the series on SARS-CoV-2 FSE (−1 PRF) (setting [1]), the inhibition at 10 µM was -39.3%. For the same molecule, the activation at 10 µM in the series on SARS-CoV-2 FSE (−1 PRF) (Severe acute respiratory syndrome coronavirus 2, HEK-293T, 24 h, read-out: PERCENT EFFECT (Increased GFP/Red Ratio)) is 20.3%. Besides, the “PERCENT VIABILITY” value in the series with HEK293T cells is on record as 24.0%.
On to `CCOC(=O)OC(C)OC1=C(C(=O)Nc2ccccn2)N(C)S(=O)(=O)c2ccccc21` (centres unmarked) [AMPIROXICAM], for which the inhibition at 10 µM with SARS-CoV-2 FSE (−1 PRF) (setting [2]) was -57.1%. Also, the activation at 10 µM in the series on SARS-CoV-2 FSE (−1 PRF) (setting [3]) amounted to 30.8%. Besides, in the series with HEK293T cells, the “PERCENT VIABILITY” value is reported as 284.3%.
Regarding `CCN(CC)CCNC(=O)c1cc(Br)c(N)cc1OC` [BROMOPRIDE], the inhibition at 10 µM with SARS-CoV-2 FSE (−1 PRF) (setting [2]) came to 65.7%. Further, the activation at 10 µM with SARS-CoV-2 FSE (−1 PRF) (setting [3]) was -35.5%. Besides, the “PERCENT VIABILITY” value with HEK293T cells was 113.8%.
With `COc1cccc2c1C(=O)c1c(O)c3c(c(O)c1C2=O)C[C@@](O)(C(C)=O)C[C@@H]3O[C@H]1C[C@H](N)[C@H](O)[C@H](C)O1` [DAUNORUBICIN], the inhibition at 10 µM in the series on SARS-CoV-2 FSE (−1 PRF) (setting [2]) was found to be 108%. For the same molecule, the “PERCENT VIABILITY” value in the series on HEK293T cells stood at 15.3%; in the series with HEK293T cells (listed as daunorubicin) it was 16.18%.
For the molecule `C[C@H]1O[C@@H](n2cc(F)c(=O)[nH]c2=O)[C@H](O)[C@@H]1O` [DOXIFLURIDINE], in the series with SARS-CoV-2 FSE (−1 PRF) (setting [2]), the inhibition at 10 µM is -31.7%. Also, the activation at 10 µM with SARS-CoV-2 FSE (−1 PRF) (setting [3]) turned out to be 17.1%. Further, in the series on HEK293T cells, the “PERCENT VIABILITY” value turned out to be 382.9%.
Turning to `COc1cccc2c1C(=O)c1c(O)c3c(c(O)c1C2=O)C[C@@](O)(C(=O)CO)C[C@@H]3O[C@H]1C[C@H](N)[C@H](O)[C@H](C)O1` [DOXORUBICIN], the inhibition at 10 µM in the series with SARS-CoV-2 FSE (−1 PRF) (setting [2]) is 101%. Moreover, the activation at 10 µM with SARS-CoV-2 FSE (−1 PRF) (setting [3]) was -54.1%. In the series on HEK293T cells, the “PERCENT VIABILITY” value was 13.3%.
As to `COc1cccc2c1C(=O)c1c(O)c3c(c(O)c1C2=O)C[C@@](O)(C(=O)CO)C[C@@H]3O[C@H]1C[C@H](N)[C@H](O)[C@H](C)O1.Cl` [Doxorubicin Â•HCl], in the series with SARS-CoV-2 FSE (−1 PRF), the “PERCENT EFFECT 2 (Decreased GFP/Red ratio)” value is 109.41% and the “PERCENT EFFECT (Increased GFP/Red Ratio)” value is on record as −57.80%. For the same molecule, the “PERCENT VIABILITY” value in the series with HEK293T cells stood at 6.15%.
For `COc1cccc2c1C(=O)c1c(O)c3c(c(O)c1C2=O)C[C@@](O)(C(=O)CO)C[C@@H]3O[C@H]1C[C@H](N)[C@@H](O)[C@H](C)O1` [EPIRUBICIN HYDROCHLORIDE], in the series with SARS-CoV-2 FSE (−1 PRF) (setting [2]), the inhibition at 10 µM is 105%. Besides, the activation at 10 µM in the series on SARS-CoV-2 FSE (−1 PRF) (setting [3]) is -56.4%. Also, in the series on HEK293T cells, the “PERCENT VIABILITY” value came out at 46.3%.
Consider `O=C1OC2(c3ccccc31)c1cc(I)c(O)c(I)c1Oc1c2cc(I)c(O)c1I` [ERYTHROSINE SODIUM], for which the inhibition at 10 µM in the series with SARS-CoV-2 FSE (−1 PRF) (setting [2]) was found to be 105%. Moreover, in the series with SARS-CoV-2 FSE (−1 PRF) (setting [3]), the activation at 10 µM was -56.3%. Further, the “PERCENT VIABILITY” value in the series with HEK293T cells was 100.7%.
On to `CCCCC(=O)O[C@H]1CC[C@H]2[C@@H]3CCc4cc(O)ccc4[C@H]3CC[C@]12C` [ESTRADIOL VALERATE], for which the inhibition at 10 µM in the series on SARS-CoV-2 FSE (−1 PRF) (setting [2]) is 20.9%. The activation at 10 µM in the series on SARS-CoV-2 FSE (−1 PRF) (setting [3]) is -10.8%. Moreover, the “PERCENT VIABILITY” value in the series on HEK293T cells is given as 204.4%.
As for `Cc1cc(-c2ccc(/N=N/c3ccc4c(S(=O)(=O)O)cc(S(=O)(=O)O)c(N)c4c3O)c(C)c2)ccc1/N=N/c1ccc2c(S(=O)(=O)O)cc(S(=O)(=O)O)c(N)c2c1O` [EVANS BLUE], the inhibition at 10 µM in the series with SARS-CoV-2 FSE (−1 PRF) (setting [2]) was determined as 31.2%. Also, the activation at 10 µM in the series with SARS-CoV-2 FSE (−1 PRF) (setting [3]) is -13.6%. In addition, the “PERCENT VIABILITY” value in the series with HEK293T cells is on record as 159.7%.
As to `CN(C)c1ccc(C(=C2C=CC(=[N+](C)C)C=C2)c2ccc(N(C)C)cc2)cc1` [GENTIAN VIOLET], the inhibition at 10 µM with SARS-CoV-2 FSE (−1 PRF) (setting [2]) was determined as 66.6%. The activation at 10 µM with SARS-CoV-2 FSE (−1 PRF) (setting [3]) was -34.5%. Moreover, the “PERCENT VIABILITY” value with HEK293T cells is on record as 12.5%.
The like results for `CC[n+]1c(-c2ccccc2)c2cc(N)ccc2c2ccc(N)cc21` [HOMIDIUM BROMIDE] were, in that order, 107%, -58% and 310.9%.
On to `Cc1cc(/C=C/c2ccc3cc(N(C)C)ccc3[n+]2C)c(C)n1-c1ccccc1` [PYRVINIUM PAMOATE], for which the “PERCENT VIABILITY” value with HEK293T cells is 15.1%.
In the case of `COc1cccc2c1C(=O)c1c(O)c3c(c(O)c1C2=O)C[C@@](O)(C(C)=NNC(=O)c1ccccc1)C[C@@H]3O[C@H]1C[C@H](N)[C@H](O)[C@H](C)O1.Cl` [zorubicin, N-[1-[(2S,4S)-4-[(2R,4S,5S,6S)-4-amino-5-hydroxy-6-methyloxan-2-yl]oxy-2,5,12-trihydroxy-7-methoxy-6,11-dioxo-3,4-dihydro-1H-tetracen-2-yl]ethylideneamino]benzamide hydrochloride], the inhibition at 10 µM in the series on SARS-CoV-2 FSE (−1 PRF) (setting [1]) stood at 106%.
